Assay results: ChEMBL document CHEMBL1121620, “Glycerides as prodrugs. 2. 1,3-Dialkanoyl-2-(2-methyl-4-oxo-1,3-benzodioxan-2-yl)glycerides (cyclic aspirin triglycerides) as antiinflammatory agents” (1980)

Legend:
Type in all cases: functional
Rattus norvegicus [1] = assay: Antiedema efficacy was measured in male Sprague-Dawley rats relative to aspirin; activity expressed as percent of aspirin
Rattus norvegicus [2] = species on record: Rattus norvegicus; assay: Compound was tested for 50% inhibition of incidence of lesions (UD50) in rat
[3] = Ratio between ulcerogenicity and anti edema activity (UD50/ED25)
Rattus norvegicus [4] = species on record: Rattus norvegicus; assay: Effective dose of compound to produce 25% inhibition in rat; Value ranges from 326-499

CCCCCCCCCC(=O)OCC(COC(=O)CCCCCCCCC)OC1(C)OC(=O)c2ccccc2O1 (configuration not stated)
Activity (Rattus norvegicus [1]): 100% | UD50 (Rattus norvegicus [2]): 4102 µM/kg | Ratio [3]: 10.6

CC(=O)OCC(COC(C)=O)OC1(C)OC(=O)c2ccccc2O1 (configuration not stated)
Activity (Rattus norvegicus [1]): 62%

CCCCCCCCCCCCCCCC(=O)OCC(COC(=O)CCCCCCCCCCCCCCC)OC1(C)OC(=O)c2ccccc2O1 (configuration not stated)
Activity (Rattus norvegicus [1]): 62%

CC(=O)Oc1ccccc1C(=O)O [ASPIRIN]
Activity (Rattus norvegicus [1]): 100% | ED25 (Rattus norvegicus [4]): 402 µM/kg
